From patent US20250171437A1 (Agios Pharmaceuticals,Inc., priority 2022, published 2025)

Target: T1, human PAH with the R408W mutation (A375 R408W cells) (Homo sapiens, UniProt P00439, R408W)
T1 construct: expressed in transfected cells
T1 sequence (P00439 1-452 R408W): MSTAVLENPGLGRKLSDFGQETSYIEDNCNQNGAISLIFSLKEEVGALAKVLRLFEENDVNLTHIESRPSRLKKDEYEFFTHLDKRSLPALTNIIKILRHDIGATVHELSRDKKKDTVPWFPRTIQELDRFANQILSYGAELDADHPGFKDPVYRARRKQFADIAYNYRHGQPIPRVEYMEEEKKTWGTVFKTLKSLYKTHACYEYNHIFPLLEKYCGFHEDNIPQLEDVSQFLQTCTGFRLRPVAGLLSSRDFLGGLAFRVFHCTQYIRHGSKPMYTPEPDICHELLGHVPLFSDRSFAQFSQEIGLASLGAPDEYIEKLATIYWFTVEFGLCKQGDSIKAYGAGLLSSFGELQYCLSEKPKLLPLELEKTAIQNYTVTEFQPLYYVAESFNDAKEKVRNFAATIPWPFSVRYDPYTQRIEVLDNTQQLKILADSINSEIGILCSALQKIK
Assay: Cell Based Phenylalanine Flux Assay
Conditions: A375 R408W cells; 24 hrs with compound, then 20 μM sepiapterin and 800 μM 13C9,15N-Phenylalanine for 4 hours; 13C-Tyrosine by LC-MS; average where tested multiple times
Method in brief: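 Stable R408W PAH A375 cells: 24 h compound pretreatment in duplicate, then 4 h with 800 μM isotope-labelled Phe and 20 μM sepiapterin. Labelled Tyr output by LC-MS; AC50 averaged where repeated.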

| SMILES | AC50 [µM] |
| --- | --- |
| O=C(c1oc(-c2ccncn2)nc1C(F)F)N1CCc2[nH]cnc2[C@@H]1c1nc2cc(F)ccc2o1 [Example 525, (R)-(4-(difluoromethyl)-2-(pyrimidin-4-yl)oxazol-5-yl)(4-(5-fluorobenzo[d]oxazol-2-yl)-6,7-dihydro-1H-imidazo[4,5-c]pyridin-5(4H)-yl)methanone] | 1 to 5 |
| Cc1ccc2oc([C@H]3c4nc[nH]c4CCN3C(=O)c3ocnc3C(F)(F)F)nc2c1 [Example 64, (R)-(4-(5-methylbenzo[d]oxazol-2-yl)-6,7-dihydro-1H-imidazo[4,5-c]pyridin-5(4H)-yl)(4-(trifluoromethyl)oxazol-5-yl)methanone] | ≤ 0.5 |
| CC(C)(O)c1nc(C2CC2)c(C(=O)N2CCc3[nH]cnc3[C@H]2c2nc3cc(F)ccc3o2)o1 [Example 557, (S)-(4-cyclopropyl-2-(2-hydroxypropan-2-yl)oxazol-5-yl)(4-(5-fluorobenzo[d]oxazol-2-yl)-6,7-dihydro-1H-imidazo[4,5-c]pyridin-5(4H)-yl)methanone] | ≤ 0.5 |
| Cn1nc(C(F)F)nc1C(=O)N1CCc2[nH]cnc2[C@H]1c1nc2cccc(F)c2o1 [Example 285, (S)-(3-(difluoromethyl)-1-methyl-1H-1,2,4-triazol-5-yl)(4-(7-fluorobenzo[d]oxazol-2-yl)-6,7-dihydro-1H-imidazo[4,5-c]pyridin-5(4H)-yl)methanone] | 0.5 to 1 |
| Cn1cnc(-c2nc(C(F)F)c(C(=O)N3CCc4[nH]cnc4[C@H]3c3nc4ccccc4o3)o2)c1 [Example 786, (S)-(4-(benzo[d]oxazol-2-yl)-6,7-dihydro-1H-imidazo[4,5-c]pyridin-5(4H)-yl)(4-(difluoromethyl)-2-(1-methyl-1H-imidazol-4-yl)oxazol-5-yl)methanone] | 0.5 to 1 |
| COc1cccc2nc([C@@H]3c4nc[nH]c4CCN3C(=O)c3nc(C)nn3C)oc12 [Example 909, (S)-(1,3-dimethyl-1H-1,2,4-triazol-5-yl)(4-(7-methoxybenzo[d]oxazol-2-yl)-6,7-dihydro-1H-imidazo[4,5-c]pyridin-5(4H)-yl)methanone] | 1 to 5 |
| Cc1ccc2nc([C@@H]3c4nc[nH]c4CCN3C(=O)c3ocnc3C(F)F)oc2c1 [Example 884, (S)-(4-(difluoromethyl)oxazol-5-yl)(4-(6-methylbenzo[d]oxazol-2-yl)-6,7-dihydro-1H-imidazo[4,5-c]pyridin-5(4H)-yl)methanone] | ≤ 0.5 |
| O=C(c1nnc(C2CC2)o1)N1CCc2[nH]cnc2[C@@H]1c1nc2c(F)ccc(F)c2o1 [Example 856, (R)-(5-cyclopropyl-1,3,4-oxadiazol-2-yl)(4-(4,7-difluorobenzo[d]oxazol-2-yl)-6,7-dihydro-1H-imidazo[4,5-c]pyridin-5(4H)-yl)methanone] | 0.5 to 1 |
| CC(C)(O)c1nc(C(F)F)c(C(=O)N2CCc3[nH]cnc3[C@@H]2c2nc3c(OC(F)(F)F)cccc3o2)o1 [Example 534, (R)-(4-(difluoromethyl)-2-(2-hydroxypropan-2-yl)oxazol-5-yl)(4-(4-(trifluoromethoxy)benzo[d]oxazol-2-yl)-6,7-dihydro-1H-imidazo[4,5-c]pyridin-5(4H)-yl)methanone] | ≤ 0.5 |
| O=C(c1oc(-c2ccccn2)nc1C(F)F)N1CCc2[nH]cnc2[C@H]1c1nc2cccc(F)c2o1 [Example 587, (S)-(4-(difluoromethyl)-2-(pyridin-2-yl)oxazol-5-yl)(4-(7-fluorobenzo[d]oxazol-2-yl)-6,7-dihydro-1H-imidazo[4,5-c]pyridin-5(4H)-yl)methanone] | ≤ 0.5 |
| Cn1nc(C(F)F)nc1C(=O)N1CCc2[nH]cnc2[C@H]1c1nc2ccccc2o1 [Example 561, (S)-(4-(benzo[d]oxazol-2-yl)-6,7-dihydro-1H-imidazo[4,5-c]pyridin-5(4H)-yl)(3-(difluoromethyl)-1-methyl-1H-1,2,4-triazol-5-yl)methanone] | 0.5 to 1 |
| O=C(c1cnn2cc(Br)c(Cl)cc12)N1CCc2[nH]cnc2[C@H]1c1nc2cc(F)ccc2o1 [Example 165, (S)-(6-bromo-5-chloropyrazolo[1,5-a]pyridin-3-yl)(4-(5-fluorobenzo[d]oxazol-2-yl)-6,7-dihydro-1H-imidazo[4,5-c]pyridin-5(4H)-yl)methanone] | ≤ 0.5 |

Next, values leading:

| AC50 [µM] | SMILES |
| --- | --- |
| 1 to 5 | Cc1cc(C(=O)N2CCc3[nH]cnc3[C@@H]2c2nc3ccccc3o2)n(C)n1 [Example 780, (R)-(4-(benzo[d]oxazol-2-yl)-6,7-dihydro-1H-imidazo[4,5-c]pyridin-5(4H)-yl)(1,3-dimethyl-1H-pyrazol-5-yl)methanone] |
| 1 to 5 | Cn1cnc(-c2nc(C(F)F)c(C(=O)N3CCc4[nH]cnc4[C@@H]3c3nc4cc(F)ccc4o3)o2)c1 [Example 642, (R)-(4-(difluoromethyl)-2-(1-methyl-1H-imidazol-4-yl)oxazol-5-yl)(4-(5-fluorobenzo[d]oxazol-2-yl)-6,7-dihydro-1H-imidazo[4,5-c]pyridin-5(4H)-yl)methanone] |
| 1 to 5 | Cn1cc(-c2nnc(C(=O)N3CCc4[nH]cnc4[C@@H]3c3nc4ccc(F)c(F)c4o3)o2)cn1 [Example 516, (R)-(4-(6,7-difluorobenzo[d]oxazol-2-yl)-6,7-dihydro-1H-imidazo[4,5-c]pyridin-5(4H)-yl)(5-(1-methyl-1H-pyrazol-4-yl)-1,3,4-oxadiazol-2-yl)methanone] |
| 1 to 5 | O=C(c1ccnn1C(F)(F)F)N1CCc2[nH]cnc2[C@@H]1c1nc2c(F)cccc2o1 [Example 294, (R)-(4-(4-fluorobenzo[d]oxazol-2-yl)-6,7-dihydro-1H-imidazo[4,5-c]pyridin-5(4H)-yl)(1-(trifluoromethyl)-1H-pyrazol-5-yl)methanone] |
| ≤ 0.5 | CC(C)(O)c1nc(C(F)F)c(C(=O)N2CCc3[nH]cnc3[C@@H]2c2nc3cc(Br)cc(F)c3o2)o1 [Example 572, (R)-(4-(5-bromo-7-fluorobenzo[d]oxazol-2-yl)-6,7-dihydro-1H-imidazo[4,5-c]pyridin-5(4H)-yl)(4-(difluoromethyl)-2-(2-hydroxypropan-2-yl)oxazol-5-yl)methanone] |
| 0.5 to 1 | Cn1cc(-c2nc(C(F)F)c(C(=O)N3CCc4[nH]cnc4[C@H]3c3nc4cc(F)ccc4o3)o2)cn1 [Example 88, (S)-(4-(difluoromethyl)-2-(1-methyl-1H-pyrazol-4-yl)oxazol-5-yl)(4-(5-fluorobenzo[d]oxazol-2-yl)-6,7-dihydro-1H-imidazo[4,5-c]pyridin-5(4H)-yl)methanone] |
| 1 to 5 | Cn1nccc1C(=O)N1Cc2[nH]cnc2[C@H]1c1nc2ccccc2o1 [Example 924, (S)-(4-(benzo[d]oxazol-2-yl)-4,6-dihydropyrrolo[3,4-d]imidazol-5(1H)-yl)(1-methyl-1H-pyrazol-5-yl)methanone] |
| 1 to 5 | O=C(c1cnn2cc(-c3ccccn3)ccc12)N1CCc2[nH]cnc2[C@@H]1c1nc2cccc(F)c2o1 [Example 452, (R)-(4-(7-fluorobenzo[d]oxazol-2-yl)-6,7-dihydro-1H-imidazo[4,5-c]pyridin-5(4H)-yl)(6-(pyridin-2-yl)pyrazolo[1,5-a]pyridin-3-yl)methanone] |
| 1 to 5 | CC(C)(O)c1nc(Br)c(C(=O)N2CCc3[nH]cnc3[C@@H]2c2nc3c(F)cccc3o2)o1 [Example 251, (R)-(4-bromo-2-(2-hydroxypropan-2-yl)oxazol-5-yl)(4-(4-fluorobenzo[d]oxazol-2-yl)-6,7-dihydro-1H-imidazo[4,5-c]pyridin-5(4H)-yl)methanone] |
| ≤ 0.5 | COc1cccc2oc([C@@H]3c4nc[nH]c4CCN3C(=O)c3ocnc3C(F)F)nc12 [Example 429, (S)-(4-(difluoromethyl)oxazol-5-yl)(4-(4-methoxybenzo[d]oxazol-2-yl)-6,7-dihydro-1H-imidazo[4,5-c]pyridin-5(4H)-yl)methanone] |
| ≤ 0.5 | Cc1ccc2nc([C@@H]3c4nc[nH]c4CCN3C(=O)c3ccnn3C(F)F)oc2c1 [Example 317, (S)-(1-(difluoromethyl)-1H-pyrazol-5-yl)(4-(6-methylbenzo[d]oxazol-2-yl)-6,7-dihydro-1H-imidazo[4,5-c]pyridin-5(4H)-yl)methanone] |
| ≤ 0.5 | Cc1cccc2oc([C@@H]3c4nc[nH]c4CCN3C(=O)c3cnco3)nc12 [Example 509, (S)-(4-(4-methylbenzo[d]oxazol-2-yl)-6,7-dihydro-1H-imidazo[4,5-c]pyridin-5(4H)-yl)(oxazol-5-yl)methanone] |

Same assay, conditions: A375 cells expressing R408W PAH; 24 hrs with compound, then 20 μM sepiapterin and 800 μM 13C9,15N-Phenylalanine for 4 hours; 13C-Tyrosine by LC-MS; average where tested multiple times

| SMILES | AC50 [µM] |
| --- | --- |
| CNC(C)(C)c1nc(C)c(C(=O)N2CCc3[nH]cnc3C2c2nc3cc(F)ccc3o2)o1 (single isomer, unassigned) [4R enantiomer of (2-{5-[4-(5-fluoro-1,3-benzoxazol-2-yl)-1H,] | ≥ 5 |
| CC(C)(C)OC(=O)N1CCN(c2ccc3c(C(=O)N4CCc5[nH]cnc5C4c4nc5cc(F)ccc5o4)cnn3c2)CC1 (stereo not drawn) | 1 to 5 |
| Cc1cccc2nc(C3c4nc[nH]c4CCN3C(=O)c3ccnn3-c3ccccn3)oc12 (stereo not drawn) | 1 to 5 |

Other lines, results leading:

| AC50 [µM] | SMILES |
| --- | --- |
| 1 to 5 | O=C(c1nncn1C1CC1)N1CCc2[nH]cnc2C1c1nc2cccc(F)c2o1 (stereo not drawn) |
| ≥ 5 | O=C(c1cnn2cc(N3CCC(O)CC3)ccc12)N1CCc2[nH]cnc2C1c1nc2c(F)cc(F)cc2o1 (stereo not drawn) |
| 1 to 5 | CC(C)(O)c1ncc(C(=O)N2CCc3[nH]cnc3C2c2nc3c(F)c(F)ccc3o2)o1 (stereo not drawn) |
